Columns and labels:
[1] = system: CHO-K1, Jurkat, L1210, MDA-MB-231, ZR-75-1 and MCF-7 cells; assay: Reversal of DFMO-induced cytostasis by exogenous spermidine in a variety of mammalian cell lines; assay type: cell-based; details: 50-100 μM BNSD-X
Experimental: FIGS. 5A, 5B, 5C, 5D, 5E and 5F are graphs representing that a compound used in a method according to a preferred embodiment antagonizes rescue of DFMO-induced cytostasis by exogenous spermidine. In particular, CHO-K1 (A), Jurkat (B), L1210 (C), MDA-MB-231 (D), ZR-75-1 (E) and MCF-7 cells (F) were grown to near confluency or saturation (for 4 to 11 d according to the cell line considered) with the indicated concentrations of spermidine in medium containing 1 mM aminoguanidine, in the presence of DFMO (●), BNSD-X (□), DFMO plus BNSD-X (▪), or in the absence of either agent (∘), and total DNA content per culture was then determined. The optimal concentration of either DFMO (1 to 5 mM) or BNSD-X (50 or 100 μM) was used for the each cell line as determined in pilot experiments. Data are presented as the mean±SD for triplicate cultures from one out of at least three identical experiments for each cell line;
(§1) To determine the ability of polyamine transport antagonists to potentiate DFMO-induced inhibition of cell proliferation in the presence of exogenous polyamines, cells were grown for the indicated period in growth medium supplemented with 1 mM aminoguanidine, and either DFMO (1 to 5 mM), the indicated transport inhibitor (50 or 100 μM), or the combination thereof, as well as increasing concentrations of spermidine (0.1 to 300 μM). Fresh medium was added every other day, and cell mass was determined at various time points during the period of exponential growth, or at the end of the experimental period. For the latter experiments, the FBS supplement was replaced with dextran-coated charcoal-treated FBS (5%, v/v) plus 0.5 μg/ml insulin in the case of T-47D, ZR-75-1 and MCF-7 cells (U.S. Pat. No. 6,083,496).

CHO-K1 cells [2] = assay: Reversal of DFMO-induced cytostasis by exogenous spermidine in CHO-K1 cells; assay type: cell-based, Chinese hamster
Experimental: FIGS. 8A and 8B are graphs representing the time course of the effect of a compound used in a method according to a preferred embodiment of the invention on rescue of DFMO-induced cytostasis by exogenous spermidine. In particular, at time zero, T-47D (panel A) or CHO-K1 (panel B) were seeded at 1×10^4 or 5×10^3 cells/well, respectively, in medium containing 1 mM aminoguanidine, plus either 0.3 μM spermidine (Spd, ●), 2 mM DFMO (□), Spd+DFMO (▪), 50 μM (A) or 100 μM (B) BNSD-X (Δ), BNSD-X+Spd (▴), BNSD-X+DFMO (□), BNSD-X+Spd+DFMO (▾), or vehicle only (∘). At the indicated time, total DNA content/well was determined. Data are presented as the mean±SD for triplicate cultures from one representative experiment;
as §1

[3] = Bioavailability of BNSD-X in drinking water: plasma and erythrocyte concentrations; assay type: in vivo, CD-1 mice; details: for Erythrocyte concentration, Spermidine / Erythrocyte concentration, Spermine / Plasma concentration, BNSD-X / Plasma concentration, Putrescine / Plasma concentration, Spermidine / Plasma concentration, Spermine: mean±S.E.
Experimental: To determine the bioavailability of BNSD-X, escalating doses of BNSD-X were dissolved in the drinking water (0, 0.25, 0.5, 1, 2 and 4%, w/v) and were made available to CD-1 mice (n=6/group) ad libitum. Animals were sacrificed after 96 h, and blood was immediately collected to determine the concentration of BNSD-X and polyamines in plasma and erythrocytes by HPLC using the dansylation method (Kabra et al. (1986) J. Chromatogr. 380:19-32).
The suitability of BNSD-X as an in vivo inhibitor of polyamine transport was next assessed in the mouse. We first determined the bioavailability of the compound by adding escalating doses of BNSD-X (0, 0.25, 0.5, 1.0, 2.0 and 4.0% (w/v)) in the drinking water of CD-1 mice. Mice were sacrificed after 4 d and the concentration of BNSD-X and polyamines was determined in plasma and erythrocytes (Tables 3 and 4). […] The plasma concentration reached by the chronic drinking of a 1% (w/v) solution of BNSD-X is thus approximately equal to the Ki value of the drug as an inhibitor of spermidine uptake in breast cancer cells (see Table 1). The drug had no effect on the plasma concentration of either putrescine, spermidine or spermine. […] These pharmacokinetic properties indicate that BNSD-X can be administered by a very convenient route to animals up to a dose sufficient in principle to inhibit the major fraction of the uptake of spermidine from the plasma.

CHO-K1 cells [4] = assay: Determination of intracellular polyamine contents in CHO-K1 cells; assay type: cell-based, Chinese hamster
Experimental: At the indicated time, cells were harvested for the determination of putrescine (A), spermidine (B) and spermine contents (C). Data are presented as the mean±SD for triplicate cultures from one representative experiment; […] At the indicated time intervals, medium was removed, cell monolayers were rinsed twice: with 10 ml of ice-cold Ca^2+/Mg^2+-free phosphate-buffered saline (PBS) (2.7 mM KCl, 1.5 mM KH2PO4, 8.1 mM Na2HPO4, 137 mM NaCl), and cells were harvested by low-speed centrifugation (2400 g for 5 min at 4° C.). […] Polyamine content was then determined by ion-pair reverse phase HPLC with fluorometric detection after post-column derivatization with o-phthaldialdehyde as described (U.S. Pat. No. 6,083,496). […] Pat. No. 6,083,496).

[5] = 0.25% (w/v) BNSD-X in drinking water, 96 h
[6] = 0.50% (w/v) BNSD-X in drinking water, 96 h
[7] = 1.0% (w/v) BNSD-X in drinking water, 96 h

Q: For `NCCCN(CCCN)Cc1ccc(CN(CCCN)CCCN)cc1` [28a, N,N,N′,N′-tetrakis-(3-aminopropyl)-p-diaminoxylene], which “increase of the spermidine concentration required to fully restore cell proliferation upon treatment with DFMO” value ([1]; DFMO 1 to 5 mM) is on record?
A: 10 to 100 fold

Q: What about the “effect of the inhibitor alone on cell proliferation” value ([1]; except L1210 and, to a lesser degree, MCF-7 cells) of the same compound?
A: little or no effect

Q: What about the “effect on the antiproliferative action of DFMO in the nominal absence of exogenous polyamines, CHO-K1” value (CHO-K1 cells [2]; 100 μM BNSD-X, 2 mM DFMO) of the same compound?
A: strongly potentiated the antiproliferative effect of DFMO

Q: And the “effect on spermidine-mediated reversal of DFMO-induced growth inhibition, CHO-K1” value (CHO-K1 cells [2]; DFMO-treated CHO-K1 cells with extracellular spermidine, data not shown)?
A: afforded increased resistance to exogenous spermidine

Q: What about the “Erythrocyte concentration, Spermidine” value [3, 5] of the same compound?
A: 1975 ± 236 nmol/L packed erythrocytes

Q: And the “Erythrocyte concentration, Spermine” value [3, 5]?
A: 60 ± 14 nmol/L packed erythrocytes

Q: What about the “Plasma concentration, BNSD-X” value [3, 5] of the same compound?
A: 6 ± 3 nM

Q: What about the “Plasma concentration, Putrescine” value [3, 5] of the same compound?
A: 108 ± 11 nM

Q: And the “Plasma concentration, Spermidine” value [3, 5]?
A: 147 ± 6 nM

Q: What about the “Plasma concentration, Spermine” value [3, 5] of the same compound?
A: 24 ± 1 nM

Q: What about the “Erythrocyte concentration, Spermidine” value [3, 6] of the same compound?
A: 2762 ± 560 nmol/L packed erythrocytes

Q: And the “Erythrocyte concentration, Spermine” value [3, 6]?
A: 95 ± 12 nmol/L packed erythrocytes

Q: And the “Plasma concentration, BNSD-X” value [3, 6]?
A: 32 ± 6 nM

Q: What about the “Plasma concentration, Putrescine” value [3, 6] of the same compound?
A: 106 ± 10 nM

Q: What about the “Plasma concentration, Spermidine” value [3, 6] of the same compound?
A: 137 ± 18 nM

Q: And the “Plasma concentration, Spermine” value [3, 6]?
A: 31 ± 6 nM

Q: What about the “Erythrocyte concentration, Spermidine” value [3, 7] of the same compound?
A: 2079 ± 291 nmol/L packed erythrocytes

Q: What about the “Erythrocyte concentration, Spermine” value [3, 7] of the same compound?
A: 83 ± 23 nmol/L packed erythrocytes

Q: What about the “Plasma concentration, BNSD-X” value [3, 7] of the same compound?
A: 129 ± 33 nM

Q: What about the “Plasma concentration, Putrescine” value [3, 7] of the same compound?
A: 117 ± 19 nM

Q: And the “Plasma concentration, Spermidine” value [3, 7]?
A: 168 ± 15 nM

Q: And the “Plasma concentration, Spermine” value [3, 7]?
A: 38 ± 3 nM

Q: What about the water consumption ([3]; BNSD-X concentrations higher than 1.0% (2.0 and 4.0%) in drinking water) of the same compound?
A: decreased drastically

Q: And the “effect on the plasma concentration of putrescine, spermidine or spermine” value ([3]; BNSD-X in drinking water, 96 h)?
A: no effect

Q: What about the accumulation into erythrocytes ([3]; BNSD-X up to 1.0% in drinking water) of the same compound?
A: did not accumulate into erythrocytes

Q: What about the oral absorption ([3]; in drinking water) of the same compound?
A: readily absorbed orally

Q: And the “reduction of intracellular spermidine content by BNSD-X alone” value (CHO-K1 cells [4]; 100 μM, over the first 2 days of incubation)?
A: about 50%

Q: What about the “effect on intracellular putrescine content” value (CHO-K1 cells [4]; single agent) of the same compound?
A: quickly led to putrescine depletion

Q: And the “effect on intracellular spermine content” value (CHO-K1 cells [4]; up to 4 days)?
A: no significant effect on spermine content
